Source: patent US8921362B2, “6,7-dialkoxy quinazoline derivatives and methods of treating drug resistant and other tumors” (Natco Pharma Limited, priority 2008, dated 2014)

Assays:
Assay in all cases: KinomeScan
Assay type in all cases: binding
Conditions in all cases: read-out: % Ctrl @ 10000 nM
KIT(V559D, T670I) = molecular target: T1, KIT(V559D, T670I) (Homo sapiens, UniProt P10721, T670I/V559D)
T1 construct: host or cells: T7 phage grown in E. coli host derived from BL21
How it was run: (§1)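 qPCR titer; phage-tagged kinase vs bead ligand; compound diluted from 40× DMSO stock; 2.5% DMSO control.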

EPHA8 = molecular target: T2, EPHA8 (Homo sapiens, UniProt P29322)
T2 construct: purchased Ambit Biosciences Corp; host or cells: T7 phage in E. coli host derived from BL21
How it was run: as §1

PCTK3 = molecular target: T3, PCTK3 (Homo sapiens, UniProt Q07002)
T3 construct: host or cells: E. coli host derived from BL21, infected with T7 phage
How it was run: as §1

PDGFRA = molecular target: T4, PDGFRA (Homo sapiens, UniProt P16234)
T4 construct: host or cells: E. coli host derived from BL21, infected with T7 phage
How it was run: as §1

CLK4 = molecular target: T5, CLK4 (Homo sapiens, UniProt Q9HAZ1)
T5 construct: host or cells: T7 phage in E. coli host derived from BL21
How it was run: as §1

MERTK = molecular target: T6, MERTK (Homo sapiens, UniProt Q12866)
T6 construct: host or cells: E. coli host derived from the BL21 strain, infected with T7 phage
T6 sequence (Q12866 21-999): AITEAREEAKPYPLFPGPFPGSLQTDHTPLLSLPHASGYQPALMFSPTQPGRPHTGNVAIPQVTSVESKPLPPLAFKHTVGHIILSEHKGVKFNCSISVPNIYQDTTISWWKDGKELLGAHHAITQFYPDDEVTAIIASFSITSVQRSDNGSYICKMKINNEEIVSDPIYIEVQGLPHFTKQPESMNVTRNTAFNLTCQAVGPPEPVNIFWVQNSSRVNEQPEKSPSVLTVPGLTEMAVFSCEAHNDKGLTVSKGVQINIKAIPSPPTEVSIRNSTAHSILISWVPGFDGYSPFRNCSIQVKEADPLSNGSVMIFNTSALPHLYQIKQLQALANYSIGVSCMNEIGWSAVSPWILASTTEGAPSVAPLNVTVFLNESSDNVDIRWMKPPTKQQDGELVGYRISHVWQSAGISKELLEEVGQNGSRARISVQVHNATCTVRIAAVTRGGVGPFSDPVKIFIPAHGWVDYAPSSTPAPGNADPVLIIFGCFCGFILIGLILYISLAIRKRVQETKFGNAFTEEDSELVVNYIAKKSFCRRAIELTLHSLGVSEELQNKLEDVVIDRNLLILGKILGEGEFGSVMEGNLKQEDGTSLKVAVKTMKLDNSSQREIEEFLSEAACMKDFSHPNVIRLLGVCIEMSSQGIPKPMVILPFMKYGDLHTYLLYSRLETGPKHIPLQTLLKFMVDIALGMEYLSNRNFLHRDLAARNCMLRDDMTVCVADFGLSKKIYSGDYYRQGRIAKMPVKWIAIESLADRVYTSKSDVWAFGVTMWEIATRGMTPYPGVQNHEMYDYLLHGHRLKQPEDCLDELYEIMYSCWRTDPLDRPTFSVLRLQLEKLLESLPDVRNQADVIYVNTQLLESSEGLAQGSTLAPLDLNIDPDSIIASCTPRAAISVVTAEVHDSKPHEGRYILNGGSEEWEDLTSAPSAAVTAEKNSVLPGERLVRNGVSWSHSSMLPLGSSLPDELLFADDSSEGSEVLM
How it was run: as §1

PRKCE = molecular target: T7, PRKCE (Homo sapiens, UniProt Q02156)
T7 construct: host or cells: T7 phage in E. coli host derived from BL21
How it was run: as §1

ERK8 = molecular target: T8, ERK8 (Homo sapiens, UniProt Q8TD08)
T8 construct: purchased Ambit Biosciences Corp; host or cells: T7 phage in E. coli host derived from BL21
How it was run: as §1

MST4 = molecular target: T9, MST4 (Homo sapiens, UniProt Q9P289)
T9 construct: host or cells: T7 phage grown in E. coli host derived from BL21
T9 sequence (Q9P289 whole entry): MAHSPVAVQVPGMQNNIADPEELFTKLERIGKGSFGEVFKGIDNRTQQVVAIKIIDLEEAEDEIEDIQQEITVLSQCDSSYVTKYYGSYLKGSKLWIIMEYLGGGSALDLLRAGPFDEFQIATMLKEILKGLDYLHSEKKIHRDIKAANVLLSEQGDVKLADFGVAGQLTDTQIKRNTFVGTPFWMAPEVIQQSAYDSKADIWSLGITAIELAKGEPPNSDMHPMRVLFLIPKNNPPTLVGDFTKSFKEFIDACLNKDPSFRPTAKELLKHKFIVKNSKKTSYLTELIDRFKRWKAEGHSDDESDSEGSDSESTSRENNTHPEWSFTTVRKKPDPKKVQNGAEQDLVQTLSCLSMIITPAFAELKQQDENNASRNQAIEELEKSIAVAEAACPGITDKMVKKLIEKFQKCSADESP
How it was run: as §1

EPHB3 = molecular target: T10, EPHB3 (Homo sapiens, UniProt P54753)
T10 construct: purchased Ambit Biosciences Corp; host or cells: T7 phage in E. coli host derived from BL21
How it was run: as §1

CSK = molecular target: T11, CSK (Homo sapiens, UniProt P41240)
T11 construct: host or cells: T7 phage in E. coli host derived from BL21
T11 sequence (P41240 whole entry): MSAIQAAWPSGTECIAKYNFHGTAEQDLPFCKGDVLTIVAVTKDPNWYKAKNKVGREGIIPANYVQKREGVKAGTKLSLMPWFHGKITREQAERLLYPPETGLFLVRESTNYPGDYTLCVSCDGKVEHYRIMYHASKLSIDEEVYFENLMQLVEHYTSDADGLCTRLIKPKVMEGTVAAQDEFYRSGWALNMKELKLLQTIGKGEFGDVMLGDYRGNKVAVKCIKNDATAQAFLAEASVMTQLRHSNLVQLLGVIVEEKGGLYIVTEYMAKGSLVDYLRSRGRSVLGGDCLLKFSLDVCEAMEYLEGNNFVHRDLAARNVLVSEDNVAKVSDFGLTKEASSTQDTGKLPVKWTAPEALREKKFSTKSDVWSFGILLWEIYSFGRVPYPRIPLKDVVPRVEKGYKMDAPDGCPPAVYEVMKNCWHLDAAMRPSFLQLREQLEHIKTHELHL
How it was run: as §1

TSSK1B = molecular target: T12, TSSK1B (Homo sapiens, UniProt Q9BXA7)
T12 construct: host or cells: E. coli host derived from BL21, T7 phage
How it was run: as §1

SLK = molecular target: T13, SLK (Homo sapiens, UniProt Q9H2G2)
T13 construct: host or cells: T7 phage grown in E. coli (BL21-derived)
How it was run: as §1

FLT3(D835H) = molecular target: T14, FLT3(D835H) (Homo sapiens, UniProt P36888, D835H)
T14 construct: host or cells: T7 phage in E. coli host derived from BL21
How it was run: as §1

AMPK-alpha1 = molecular target: T15, AMPK-alpha1 (Homo sapiens, UniProt Q13131)
T15 construct: host or cells: E. coli (BL21-derived), T7 phage lysate
How it was run: as §1

NEK7 = molecular target: T16, NEK7 (Homo sapiens, UniProt Q8TDX7)
T16 construct: host or cells: T7 phage grown in E. coli host derived from BL21
How it was run: as §1

PRKG1 = molecular target: T17, PRKG1 (Homo sapiens, UniProt Q13976)
T17 construct: host or cells: T7 phage in E. coli host derived from BL21
How it was run: as §1

FLT3(N8411) = molecular target: T18, FLT3(N8411) (Homo sapiens, UniProt P36888, N841I)
T18 construct: host or cells: T7 phage in E. coli host derived from BL21
How it was run: as §1

CSNK1E = molecular target: T19, CSNK1E (Homo sapiens, UniProt P49674)
T19 construct: host or cells: T7 phage in E. coli host derived from BL21
T19 sequence (P49674 whole entry): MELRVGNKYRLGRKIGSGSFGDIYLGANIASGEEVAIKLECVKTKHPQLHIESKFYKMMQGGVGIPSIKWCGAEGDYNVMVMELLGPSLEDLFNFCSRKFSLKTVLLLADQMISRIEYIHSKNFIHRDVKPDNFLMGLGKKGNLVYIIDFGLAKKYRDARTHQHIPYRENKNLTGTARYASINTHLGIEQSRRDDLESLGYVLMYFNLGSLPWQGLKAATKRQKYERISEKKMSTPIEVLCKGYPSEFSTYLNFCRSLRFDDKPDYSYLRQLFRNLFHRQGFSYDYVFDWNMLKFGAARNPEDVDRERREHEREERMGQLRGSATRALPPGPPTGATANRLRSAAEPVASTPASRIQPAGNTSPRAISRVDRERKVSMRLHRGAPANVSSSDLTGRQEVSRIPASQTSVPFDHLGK
How it was run: as §1

DCAMKL2 = molecular target: T20, DCAMKL2 (Homo sapiens, UniProt Q8N568)
T20 construct: purchased Ambit Biosciences Corp (KinomeScan); host or cells: T7 phage in E. coli host derived from BL21
T20 sequence (Q8N568 whole entry): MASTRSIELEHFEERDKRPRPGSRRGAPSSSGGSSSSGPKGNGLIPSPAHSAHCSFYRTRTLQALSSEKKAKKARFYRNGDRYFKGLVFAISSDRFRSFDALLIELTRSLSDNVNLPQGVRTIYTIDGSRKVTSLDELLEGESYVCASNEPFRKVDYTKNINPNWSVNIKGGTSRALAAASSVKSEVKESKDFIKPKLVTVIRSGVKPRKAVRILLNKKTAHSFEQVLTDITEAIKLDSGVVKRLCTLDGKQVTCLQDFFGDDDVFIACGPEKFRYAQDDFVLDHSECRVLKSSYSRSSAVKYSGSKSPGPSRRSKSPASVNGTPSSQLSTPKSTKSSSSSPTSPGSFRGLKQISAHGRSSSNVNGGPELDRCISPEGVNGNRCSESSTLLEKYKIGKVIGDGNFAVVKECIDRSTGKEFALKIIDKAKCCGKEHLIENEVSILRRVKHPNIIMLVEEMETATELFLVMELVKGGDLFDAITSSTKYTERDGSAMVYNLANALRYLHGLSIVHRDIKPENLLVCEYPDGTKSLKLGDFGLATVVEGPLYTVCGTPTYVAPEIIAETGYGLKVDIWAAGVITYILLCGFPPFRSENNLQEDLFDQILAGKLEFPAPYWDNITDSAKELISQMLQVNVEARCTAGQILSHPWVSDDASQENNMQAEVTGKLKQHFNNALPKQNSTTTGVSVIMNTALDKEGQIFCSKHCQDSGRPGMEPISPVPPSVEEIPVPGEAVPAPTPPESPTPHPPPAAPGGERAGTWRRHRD
How it was run: as §1

AKT2 = molecular target: T21, AKT2 (Homo sapiens, UniProt P31751)
T21 construct: host or cells: E. coli (BL21-derived), T7 phage lysate
How it was run: as §1

CSNK1D = molecular target: T22, CSNK1D (Homo sapiens, UniProt P48730)
T22 construct: host or cells: T7 phage in E. coli host derived from BL21
How it was run: as §1

TRKA = molecular target: T23, TRKA (Homo sapiens, UniProt P04629)
T23 construct: host or cells: E. coli host derived from BL21, T7 phage
T23 sequence (P04629 33-796): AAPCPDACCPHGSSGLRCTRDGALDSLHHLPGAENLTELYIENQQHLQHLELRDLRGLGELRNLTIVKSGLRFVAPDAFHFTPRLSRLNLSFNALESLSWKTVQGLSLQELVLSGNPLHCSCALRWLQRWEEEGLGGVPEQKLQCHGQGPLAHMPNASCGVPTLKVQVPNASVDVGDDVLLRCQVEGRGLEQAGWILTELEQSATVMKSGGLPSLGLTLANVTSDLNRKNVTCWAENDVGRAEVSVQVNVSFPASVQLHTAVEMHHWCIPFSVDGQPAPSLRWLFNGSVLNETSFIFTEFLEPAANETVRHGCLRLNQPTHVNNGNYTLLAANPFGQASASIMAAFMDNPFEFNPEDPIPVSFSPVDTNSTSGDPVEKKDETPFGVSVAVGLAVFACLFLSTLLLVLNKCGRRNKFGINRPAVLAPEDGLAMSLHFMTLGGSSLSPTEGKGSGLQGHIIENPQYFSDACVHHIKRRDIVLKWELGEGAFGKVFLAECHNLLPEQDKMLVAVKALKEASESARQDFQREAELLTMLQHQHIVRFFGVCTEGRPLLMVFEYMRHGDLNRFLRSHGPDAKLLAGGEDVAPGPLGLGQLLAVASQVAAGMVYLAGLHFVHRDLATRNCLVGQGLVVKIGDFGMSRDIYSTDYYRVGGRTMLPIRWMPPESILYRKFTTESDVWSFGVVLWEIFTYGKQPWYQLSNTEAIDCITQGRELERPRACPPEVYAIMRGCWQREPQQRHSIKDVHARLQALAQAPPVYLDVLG
How it was run: as §1

GAK = molecular target: T24, GAK (Homo sapiens, UniProt O14976)
T24 construct: host or cells: T7 phage in E. coli host derived from BL21
How it was run: as §1

MYLK2 = molecular target: T25, MYLK2 (Homo sapiens, UniProt Q9H1R3)
T25 construct: host or cells: T7 phage grown in E. coli host derived from BL21
T25 sequence (Q9H1R3 whole entry): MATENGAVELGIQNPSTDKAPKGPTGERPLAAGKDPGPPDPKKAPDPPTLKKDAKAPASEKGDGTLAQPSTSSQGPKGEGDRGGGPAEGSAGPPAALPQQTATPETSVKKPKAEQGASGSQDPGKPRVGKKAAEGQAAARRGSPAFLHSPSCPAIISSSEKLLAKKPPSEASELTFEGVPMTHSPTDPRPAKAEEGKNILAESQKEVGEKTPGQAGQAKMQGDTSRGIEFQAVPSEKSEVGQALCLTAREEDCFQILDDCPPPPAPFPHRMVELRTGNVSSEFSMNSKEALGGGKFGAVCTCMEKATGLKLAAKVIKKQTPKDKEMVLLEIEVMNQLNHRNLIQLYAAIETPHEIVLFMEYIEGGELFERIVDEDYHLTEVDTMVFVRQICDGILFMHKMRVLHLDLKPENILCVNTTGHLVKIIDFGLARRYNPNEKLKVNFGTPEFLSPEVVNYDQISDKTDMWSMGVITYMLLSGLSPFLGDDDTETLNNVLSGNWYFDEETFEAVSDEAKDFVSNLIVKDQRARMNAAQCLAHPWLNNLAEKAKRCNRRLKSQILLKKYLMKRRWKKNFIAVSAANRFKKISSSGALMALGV
How it was run: as §1

RIPK1 = molecular target: T26, RIPK1 (Homo sapiens, UniProt Q13546)
T26 construct: host or cells: E. coli host derived from BL21, T7 phage display
How it was run: as §1

FGR = molecular target: T27, FGR (Homo sapiens, UniProt P09769)
T27 construct: host or cells: T7 phage in E. coli host derived from BL21
How it was run: as §1

TAOK1 = molecular target: T28, TAOK1 (Homo sapiens, UniProt Q7L7X3)
T28 construct: host or cells: T7 phage grown in E. coli (BL21-derived)
How it was run: as §1

EGFR(S752-1759del) = molecular target: T29, EGFR(S752-1759del) (Homo sapiens, UniProt P00533, DEL752-759)
T29 construct: purchased Ambit Biosciences Corp; host or cells: T7 phage in E. coli host derived from BL21
How it was run: as §1

ABL1(H396P) = molecular target: T30, ABL1(H396P) (Homo sapiens, UniProt P00519, H396P)
T30 construct: host or cells: E. coli (BL21-derived), T7 phage lysate
How it was run: as §1

TIE2 = molecular target: T31, TIE2 (Homo sapiens, UniProt Q02763)
T31 construct: host or cells: E. coli host derived from BL21, T7 phage
How it was run: as §1

EPHA7 = molecular target: T32, EPHA7 (Homo sapiens, UniProt Q15375)
T32 construct: purchased Ambit Biosciences Corp; host or cells: T7 phage in E. coli host derived from BL21
How it was run: as §1

LIMK2 = molecular target: T33, LIMK2 (Homo sapiens, UniProt P53671)
T33 construct: host or cells: T7 phage grown in E. coli host derived from BL21
How it was run: as §1

PAK4 = molecular target: T34, PAK4 (Homo sapiens, UniProt O96013)
T34 construct: host or cells: E. coli host derived from BL21, infected with T7 phage
T34 sequence (O96013 whole entry): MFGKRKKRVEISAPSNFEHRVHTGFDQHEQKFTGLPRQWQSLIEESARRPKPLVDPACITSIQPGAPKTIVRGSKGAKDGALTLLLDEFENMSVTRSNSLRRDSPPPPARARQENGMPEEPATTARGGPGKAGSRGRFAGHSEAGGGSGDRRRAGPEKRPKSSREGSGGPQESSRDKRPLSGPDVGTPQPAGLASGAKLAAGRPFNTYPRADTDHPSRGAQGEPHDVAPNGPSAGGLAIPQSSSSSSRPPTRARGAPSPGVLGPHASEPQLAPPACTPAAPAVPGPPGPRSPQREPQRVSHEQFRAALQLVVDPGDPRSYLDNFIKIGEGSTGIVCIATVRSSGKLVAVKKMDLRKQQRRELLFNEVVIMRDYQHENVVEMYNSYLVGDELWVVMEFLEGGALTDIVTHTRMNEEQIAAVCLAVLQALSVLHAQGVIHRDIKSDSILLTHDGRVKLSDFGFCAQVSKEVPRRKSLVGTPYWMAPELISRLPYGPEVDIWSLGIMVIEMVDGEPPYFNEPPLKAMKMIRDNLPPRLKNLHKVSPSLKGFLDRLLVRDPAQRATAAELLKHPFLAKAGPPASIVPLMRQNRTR
How it was run: as §1

**Q.** Which remaining binding at 10 µM (KIT(V559D, T670I)) does the source give for `C#Cc1cccc(Nc2ncnc3cc(OC)c(OCCCN4CCOCC4)cc23)c1` [NRC-2694, N-(3-ethynylphenyl)-7-methoxy-6-[3-(4-morpholinyl)propoxy]-4-quinazolinamine] here?
**A.** Its remaining binding at 10 µM is 28%.

**Q.** And the remaining binding at 10 µM (EPHA8)?
**A.** Its remaining binding at 10 µM is 66%.

**Q.** What about the remaining binding at 10 µM (PCTK3) of the same compound?
**A.** Its remaining binding at 10 µM is 82%.

**Q.** What about the remaining binding at 10 µM (PDGFRA) of the same compound?
**A.** The remaining binding at 10 µM was 50%.

**Q.** And the remaining binding at 10 µM (CLK4)?
**A.** The remaining binding at 10 µM was 17%.

**Q.** And the remaining binding at 10 µM (MERTK)?
**A.** The remaining binding at 10 µM was 48%.

**Q.** What about the remaining binding at 10 µM (PRKCE) of the same compound?
**A.** The remaining binding at 10 µM was 65%.

**Q.** What about the remaining binding at 10 µM (ERK8) of the same compound?
**A.** The remaining binding at 10 µM was 62%.

**Q.** What about the remaining binding at 10 µM (MST4) of the same compound?
**A.** The remaining binding at 10 µM was 29%.

**Q.** And the remaining binding at 10 µM (EPHB3)?
**A.** The remaining binding at 10 µM was 75%.

**Q.** What about the remaining binding at 10 µM (CSK) of the same compound?
**A.** Its remaining binding at 10 µM is 53%.

**Q.** And the remaining binding at 10 µM (TSSK1B)?
**A.** The remaining binding at 10 µM was 93%.

**Q.** And the remaining binding at 10 µM (SLK)?
**A.** Its remaining binding at 10 µM is 0.3%.

**Q.** What about the remaining binding at 10 µM (FLT3(D835H)) of the same compound?
**A.** Its remaining binding at 10 µM is 8.1%.

**Q.** And the remaining binding at 10 µM (AMPK-alpha1)?
**A.** The remaining binding at 10 µM was 50%.

**Q.** What about the remaining binding at 10 µM (NEK7) of the same compound?
**A.** Its remaining binding at 10 µM is 78%.

**Q.** And the remaining binding at 10 µM (PRKG1)?
**A.** Its remaining binding at 10 µM is 75%.

**Q.** And the remaining binding at 10 µM (FLT3(N8411))?
**A.** Its remaining binding at 10 µM is 16%.

**Q.** What about the remaining binding at 10 µM (CSNK1E) of the same compound?
**A.** Its remaining binding at 10 µM is 9.6%.

**Q.** And the remaining binding at 10 µM (DCAMKL2)?
**A.** The remaining binding at 10 µM was 69%.

**Q.** What about the remaining binding at 10 µM (AKT2) of the same compound?
**A.** The remaining binding at 10 µM was 100%.

**Q.** What about the remaining binding at 10 µM (CSNK1D) of the same compound?
**A.** Its remaining binding at 10 µM is 25%.

**Q.** What about the remaining binding at 10 µM (TRKA) of the same compound?
**A.** Its remaining binding at 10 µM is 100%.

**Q.** What about the remaining binding at 10 µM (GAK) of the same compound?
**A.** The remaining binding at 10 µM was 0.95%.

**Q.** What about the remaining binding at 10 µM (MYLK2) of the same compound?
**A.** Its remaining binding at 10 µM is 4.8%.

**Q.** What about the remaining binding at 10 µM (RIPK1) of the same compound?
**A.** Its remaining binding at 10 µM is 100%.

**Q.** What about the remaining binding at 10 µM (FGR) of the same compound?
**A.** The remaining binding at 10 µM was 19%.

**Q.** What about the remaining binding at 10 µM (TAOK1) of the same compound?
**A.** Its remaining binding at 10 µM is 54%.

**Q.** And the remaining binding at 10 µM (EGFR(S752-1759del))?
**A.** The remaining binding at 10 µM was 0%.

**Q.** What about the remaining binding at 10 µM (ABL1(H396P)) of the same compound?
**A.** The remaining binding at 10 µM was 34%.

**Q.** What about the remaining binding at 10 µM (TIE2) of the same compound?
**A.** The remaining binding at 10 µM was 76%.

**Q.** What about the remaining binding at 10 µM (EPHA7) of the same compound?
**A.** Its remaining binding at 10 µM is 70%.

**Q.** And the remaining binding at 10 µM (LIMK2)?
**A.** The remaining binding at 10 µM was 100%.

**Q.** What about the remaining binding at 10 µM (PAK4) of the same compound?
**A.** Its remaining binding at 10 µM is 80%.
